{
  "source": "patent EP4684784A1",
  "about": "“ANTI-INFLAMMATORY COSMETIC COMPOSITION” (LG Chem, Ltd., priority 2023, dated 2025)",
  "system": "Mouse macrophages",
  "test": "Evaluation of reactive nitrogen species inhibiting ability (nitric oxide production, Griess reagent, LPS-treated macrophages)",
  "format": "cell-based",
  "conditions": "for Nitrogen oxide concentration, Average / Nitrogen oxide concentration, Once / Nitrogen oxide concentration, Two times / Nitrogen oxide concentration, Three times: LPS 1 µg/ml, cultured 24 hours; for Nitrogen oxide concentration, Average: average of three; for Nitrogen oxide concentration, Once: replicate 1; for Nitrogen oxide concentration, Two times: replicate 2; for Nitrogen oxide concentration, Three times: replicate 3",
  "description": "Mouse macrophages were divided into 1X10^6 cells in a 6-well plate and cultured for 24 hours, then treated with LPS (Lipopolysaccharide, concentration 1 µg/ml) solution, and treated with the 3-hydroxypropionic acid aqueous solution according to Preparation Example 1 at four concentrations (3HP concentration: 0 wt.%, 0.0125 wt.%, 0.025 wt.%, 0.05 wt.%), and then cultured again for 24 hours. Only the medium was then separated and centrifuged for 10 minutes to collect only the supernatant. The supernatant was mixed with Griess reagent (Sigma-Aldrich) reagent in a 1:1 ratio and reacted at room temperature, and then the absorbance (OD, wavelength 540 nm) was measured using a microplate reader. The measured value was substituted into the regression equation obtained from the standard curve prepared by reacting Griess reagent (Sigma-Aldrich) and NaNO2 in a 1:1 ratio to calculate the amount of nitric oxide(NO) produced. Here, the case in which neither the LPS solution nor the 3HP aqueous solution was treated was performed as a negative control group.",
  "data": [
    {"compound": "O=C(O)CCO", "note": "[Example 3HP, 3-hydroxypropionic acid]", "values": [
      {"measurement": "Nitrogen oxide concentration, Average", "setting": "3HP concentration 0.0125 wt.%", "result": 64.949, "unit": "µM"},
      {"measurement": "Nitrogen oxide concentration, Once", "setting": "3HP concentration 0.0125 wt.%", "result": 63.956, "unit": "µM"},
      {"measurement": "Nitrogen oxide concentration, Two times", "setting": "3HP concentration 0.0125 wt.%", "result": 64.800, "unit": "µM"},
      {"measurement": "Nitrogen oxide concentration, Three times", "setting": "3HP concentration 0.0125 wt.%", "result": 66.093, "unit": "µM"},
      {"measurement": "Nitrogen oxide concentration, Average", "setting": "3HP concentration 0.025 wt.%", "result": 64.774, "unit": "µM"},
      {"measurement": "Nitrogen oxide concentration, Once", "setting": "3HP concentration 0.025 wt.%", "result": 63.138, "unit": "µM"},
      {"measurement": "Nitrogen oxide concentration, Two times", "setting": "3HP concentration 0.025 wt.%", "result": 65.222, "unit": "µM"},
      {"measurement": "Nitrogen oxide concentration, Three times", "setting": "3HP concentration 0.025 wt.%", "result": 65.961, "unit": "µM"},
      {"measurement": "Nitrogen oxide concentration, Average", "setting": "3HP concentration 0.05 wt.%", "result": 56.630, "unit": "µM"},
      {"measurement": "Nitrogen oxide concentration, Once", "setting": "3HP concentration 0.05 wt.%", "result": 56.146, "unit": "µM"},
      {"measurement": "Nitrogen oxide concentration, Two times", "setting": "3HP concentration 0.05 wt.%", "result": 56.357, "unit": "µM"},
      {"measurement": "Nitrogen oxide concentration, Three times", "setting": "3HP concentration 0.05 wt.%", "result": 57.386, "unit": "µM"},
      {"measurement": "inhibiting the production of reactive nitrogen species", "setting": "under the treatment concentrations 0.0125 to 0.05 wt.%, result in words", "result": "effect of inhibiting the production of reactive nitrogen species was exhibited"}
    ]}
  ]
}
